Experimental data taken from ChEMBL document CHEMBL3352575, “Synthesis, in vitro and in vivo antitumor activity of pyrazole-fused 23-hydroxybetulinic acid derivatives” (Bioorg Med Chem Lett, 2015).

How the values were obtained:
Format in all cases: functional, cell-based
B16 = assay: Antiproliferative activity against mouse B16 cells after 72 hrs by MTT assay; settings: B16, 72 h
HeLa = assay: Antiproliferative activity against human HeLa cells after 72 hrs by MTT assay
[1] = Antiproliferative activity against human SF763 cells after 72 hrs by MTT assay; settings: SF763, 72 h
[2] = Antiproliferative activity against human HL60 cells after 72 hrs by MTT assay; settings: HL-60, 72 h
[3] = Antiproliferative activity against human Bel7402 cells after 72 hrs by MTT assay; settings: Bel-7402, 72 h

SMILES	IC50 (B16) [µM]	IC50 (HeLa) [µM]	IC50 [1] [µM]	IC50 [2] [µM]	IC50 [3] [µM]
C=C(C)[C@@H]1CC[C@]2(C(=O)OCc3ccccc3)CC[C@]3(C)[C@H](CC[C@@H]4[C@@]5(C)Cc6cn(C(C)=O)nc6[C@@](C)(COC(C)=O)[C@@H]5CC[C@]43C)[C@@H]12	28	30.9	28.4	33.6	26.7
C=C(C)[C@@H]1CC[C@]2(C(=O)OCC)CC[C@]3(C)[C@H](CC[C@@H]4[C@@]5(C)Cc6cn(C(C)=O)nc6[C@@](C)(COC(C)=O)[C@@H]5CC[C@]43C)[C@@H]12	30.2	32.6	29.4	40.2	33.7
C=C(C)[C@@H]1CC[C@]2(C(=O)OCC(=O)OCC)CC[C@]3(C)[C@H](CC[C@@H]4[C@@]5(C)Cc6cn(C(C)=O)nc6[C@@](C)(COC(C)=O)[C@@H]5CC[C@]43C)[C@@H]12	35.7	40.4	37.6	45.6	36
C=CCOC(=O)[C@]12CC[C@@H](C(=C)C)[C@@H]1[C@H]1CC[C@@H]3[C@@]4(C)Cc5cn(C(C)=O)nc5[C@@](C)(COC(C)=O)[C@@H]4CC[C@@]3(C)[C@]1(C)CC2	19.8	27.4	19.5	32.3	23.1
C=C(C)[C@@H]1CC[C@]2(C(=O)O[C@@H]3O[C@H](CO)[C@@H](O)[C@H](O)[C@H]3O)CC[C@]3(C)[C@H](CC[C@@H]4[C@@]5(C)Cc6c[nH]nc6[C@@](C)(COC(C)=O)[C@@H]5CC[C@]43C)[C@@H]12	18.9	20	20.1	28.5	14.1
C=C(C)[C@@H]1CC[C@]2(C(=O)OCCO)CC[C@]3(C)[C@H](CC[C@@H]4[C@@]5(C)Cc6cn(C(C)=O)nc6[C@@](C)(COC(C)=O)[C@@H]5CC[C@]43C)[C@@H]12	33.8	40.1	32.1	43.2	34.4
C=C(C)[C@@H]1CC[C@]2(C(=O)Oc3ccc(C#N)cc3)CC[C@]3(C)[C@H](CC[C@@H]4[C@@]5(C)Cc6cn(C(C)=O)nc6[C@@](C)(COC(C)=O)[C@@H]5CC[C@]43C)[C@@H]12	22.5	28	23.4	31.3	18.1
C=C(C)[C@@H]1CC[C@]2(C(=O)OCc3ccccc3)CC[C@]3(C)[C@H](CC[C@@H]4[C@@]5(C)Cc6cn(CC)nc6[C@@](C)(CO)[C@@H]5CC[C@]43C)[C@@H]12	38.2	40	39.6	40.1	45.8
C=CCn1cc2c(n1)[C@@](C)(CO)[C@@H]1CC[C@]3(C)[C@H](CC[C@@H]4[C@H]5[C@H](C(=C)C)CC[C@]5(C(=O)OCc5ccccc5)CC[C@]43C)[C@@]1(C)C2	20.1	26.4	21.1	31.1	29.6
C=C(C)[C@@H]1CC[C@]2(C(=O)OCc3ccccc3)CC[C@]3(C)[C@H](CC[C@@H]4[C@@]5(C)Cc6cn(CC(=O)OCC)nc6[C@@](C)(CO)[C@@H]5CC[C@]43C)[C@@H]12	32.9	37	33	39.1	43
C=C(C)[C@@H]1CC[C@]2(C(=O)OCC)CC[C@]3(C)[C@H](CC[C@@H]4[C@@]5(C)Cc6cn(CC)nc6[C@@](C)(COC(C)=O)[C@@H]5CC[C@]43C)[C@@H]12	19.4	24.2	19.4	28.1	30.2
C=CCOC(=O)[C@]12CC[C@@H](C(=C)C)[C@@H]1[C@H]1CC[C@@H]3[C@@]4(C)Cc5cn(CC=C)nc5[C@@](C)(COC(C)=O)[C@@H]4CC[C@@]3(C)[C@]1(C)CC2	20.1	27.3	22	30.8	33.5
C=C(C)[C@@H]1CC[C@]2(C(=O)OCC(=O)OCC)CC[C@]3(C)[C@H](CC[C@@H]4[C@@]5(C)Cc6cn(CC(=O)OCC)nc6[C@@](C)(COC(C)=O)[C@@H]5CC[C@]43C)[C@@H]12	29.3	38.2	34	35.1	39.2
C=CCOC(=O)[C@]12CC[C@@H](C(=C)C)[C@@H]1[C@H]1CC[C@@H]3[C@@]4(C)Cc5cn(CC=C)nc5[C@@](C)(CO)[C@@H]4CC[C@@]3(C)[C@]1(C)CC2	24.9	32.1	25.3	33.4	38.8
COc1cccc2c1C(=O)c1c(O)c3c(c(O)c1C2=O)C[C@@](O)(C(=O)CO)C[C@@H]3O[C@H]1C[C@H](N)[C@H](O)[C@H](C)O1 [DOXORUBICIN]	–	–	–	–	0.22

Second part, led by results:

IC50 (B16) [µM]	IC50 (HeLa) [µM]	SMILES	IC50 [1] [µM]	IC50 [2] [µM]	IC50 [3] [µM]
13	16.1	C=C(C)[C@@H]1CC[C@]2(C(=O)OCc3ccccc3)CC[C@]3(C)[C@H](CC[C@@H]4[C@@]5(C)Cc6c[nH]nc6[C@@](C)(CO)[C@@H]5CC[C@]43C)[C@@H]12	11.7	20.1	13.9
37.4	33.8	C=C(C)[C@@H]1CC[C@]2(C(=O)O)CC[C@]3(C)[C@H](CC[C@@H]4[C@@]5(C)Cc6cn(C(C)=O)nc6[C@@](C)(COC(C)=O)[C@@H]5CC[C@]43C)[C@@H]12	31.5	39.1	30.7
15.3	17.8	C=C(C)[C@@H]1CC[C@]2(C(=O)O)CC[C@]3(C)[C@H](CC[C@@H]4[C@@]5(C)Cc6c[nH]nc6[C@@](C)(COC(C)=O)[C@@H]5CC[C@]43C)[C@@H]12	14.1	25.1	17.1
19.8	21.1	C=C(C)[C@@H]1CC[C@]2(C(=O)O)CC[C@]3(C)[C@H](CC[C@@H]4[C@@]5(C)Cc6c[nH]nc6[C@@](C)(CO)[C@@H]5CC[C@]43C)[C@@H]12	20.8	29.1	21
16.1	16.2	C=C(C)[C@@H]1CC[C@]2(C(=O)OCC)CC[C@]3(C)[C@H](CC[C@@H]4[C@@]5(C)Cc6c[nH]nc6[C@@](C)(CO)[C@@H]5CC[C@]43C)[C@@H]12	13.3	21.1	15.2
18	19.5	C=CCOC(=O)[C@]12CC[C@@H](C(=C)C)[C@@H]1[C@H]1CC[C@@H]3[C@@]4(C)Cc5c[nH]nc5[C@@](C)(CO)[C@@H]4CC[C@@]3(C)[C@]1(C)CC2	18.7	24.3	17.8
7.89	10	C=C(C)[C@@H]1CC[C@]2(C(=O)N3CCOCC3)CC[C@]3(C)[C@H](CC[C@@H]4[C@@]5(C)Cc6c[nH]nc6[C@@](C)(COC(C)=O)[C@@H]5CC[C@]43C)[C@@H]12	8.45	9.85	10.2
18.9	21.2	C=C(C)[C@@H]1CC[C@]2(C(=O)NCC(=O)OC)CC[C@]3(C)[C@H](CC[C@@H]4[C@@]5(C)Cc6c[nH]nc6[C@@](C)(COC(C)=O)[C@@H]5CC[C@]43C)[C@@H]12	17.7	20.9	19.3
31.1	35.5	C=C(C)[C@@H]1CC[C@]2(C(=O)N3CCOCC3)CC[C@]3(C)[C@H](CC[C@@H]4[C@@]5(C)Cc6c[nH]nc6[C@@](C)(CO)[C@@H]5CC[C@]43C)[C@@H]12	33.7	39	39.4
30.8	32.7	C=C(C)[C@@H]1CC[C@]2(C(=O)NCC(=O)O)CC[C@]3(C)[C@H](CC[C@@H]4[C@@]5(C)Cc6c[nH]nc6[C@@](C)(CO)[C@@H]5CC[C@]43C)[C@@H]12	27.4	34.9	36.1
42.4	58.8	C=C(C)[C@@H]1CC[C@]2(C(=O)O)CC[C@]3(C)[C@H](CC[C@@H]4[C@@]5(C)Cc6cn(CC)nc6[C@@](C)(CO)[C@@H]5CC[C@]43C)[C@@H]12	44.1	47	50.3
44.3	54.1	C=C(C)[C@@H]1CC[C@]2(C(=O)O)CC[C@]3(C)[C@H](CC[C@@H]4[C@@]5(C)Cc6cn(CCC)nc6[C@@](C)(CO)[C@@H]5CC[C@]43C)[C@@H]12	41	45.8	48
29.4	47.2	C=C(C)[C@@H]1CC[C@]2(C(=O)O)CC[C@]3(C)[C@H](CC[C@@H]4[C@@]5(C)Cc6cn(CC(=O)OCC)nc6[C@@](C)(CO)[C@@H]5CC[C@]43C)[C@@H]12	35.9	49.8	40.6
39.7	59.9	C=C(C)[C@@H]1CC[C@]2(C(=O)O)CC[C@]3(C)[C@H](CC[C@@H]4[C@@]5(C)Cc6cn(CC(=O)O)nc6[C@@](C)(CO)[C@@H]5CC[C@]43C)[C@@H]12	30.2	46.3	50.2
36	50	C=C(C)[C@@H]1CC[C@]2(C(=O)OCC(=O)O)CC[C@]3(C)[C@H](CC[C@@H]4[C@@]5(C)Cc6cn(CC(=O)O)nc6[C@@](C)(CO)[C@@H]5CC[C@]43C)[C@@H]12	41.8	44.8	47.6
